Experimental data published in patent publication US9833497B2, “Human originated EGF domain proteins and use of the same” (CHENGDU SOURCEBIO LIMITED-LIABILITY COMPANY, priority 2013, dated 2017).

Experiments:
Format in all cases: cell-based
E. coli DH5α = experiment: Antibacterial activity: MIC and growth curve against E. coli DH5α in 96-well plate; details: minimal inhibitory concentration against E. coli DH5α; 96-well plate, 5×10^5 CFU/mL, 37° C., judged after 8 h
Outline: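 Log-phase DH5α (OD600 about 0.5, 37° C, 185 rpm in LB) was pelleted, resuspended in fresh LB and seeded at 5×10^5 CFU/mL with recombinant protein at 50, 25 and 12.5 μg/mL (two-fold series), in triplicate. Plates were shaken at 175 rpm, 37° C, and OD600 was read every 30 min. MIC was the lowest concentration with no growth.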

E. coli BL21 = experiment: MIC against Gram-negative bacteria: E. coli BL21; details: for MIC E. coli BL21: two-fold serial dilution
Outline: (§1)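 Antibacterial activity of purified human EGF domain proteins: two-fold concentration series, triplicate wells, LB broth, 5×10^5 CFU/mL bacteria, 37° C shaking incubation. The lowest concentration without growth defines the MIC.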

Pseudomonas aeruginosa = experiment: MIC against Gram-negative bacteria: Pseudomonas aeruginosa; details: for MIC against P. aeruginosa: Pseudomonas aeruginosa; for MIC P. aeruginosa: two-fold serial dilution
Outline: as §1

Klebsiella pneumonia = experiment: MIC against Gram-negative bacteria: Klebsiella pneumonia; details: for MIC against K. pneumonia: Klebsiella pneumonia; for MIC K. pneumonia: two-fold serial dilution
Outline: as §1

Enterobacter cloacae = experiment: MIC against Gram-negative bacteria: Enterobacter cloacae; details: for MIC against E. cloacae: Enterobacter cloacae; for MIC E. cloacae: two-fold serial dilution
Outline: as §1

Aeromonas hydrophila = experiment: MIC against Gram-negative bacteria: Aeromonas hydrophila; details: for MIC against A. hydrophila: Aeromonas hydrophila; for MIC A. hydrophila: two-fold serial dilution
Outline: as §1

Citrobacter diversus = experiment: MIC against Gram-negative bacteria: Citrobacter diversus; details: for MIC against C. diversus: Citrobacter diversus; for MIC C. diversus: two-fold serial dilution
Outline: as §1

Moraxella catarrhalis = experiment: MIC against Gram-negative bacteria: Moraxella catarrhalis; details: for MIC against M. catarrhalis: Moraxella catarrhalis; for MIC M. catarrhalis: two-fold serial dilution
Outline: as §1

Proteus mirabilis = experiment: MIC against Gram-negative bacteria: Proteus mirabilis; details: for MIC against P. mirabilis: Proteus mirabilis; for MIC P. mirabilis: two-fold serial dilution
Outline: as §1

Proteus vulgaris = experiment: MIC against Gram-negative bacteria: Proteus vulgaris; details: for MIC against P. vulgaris: Proteus vulgaris; for MIC P. vulgaris: two-fold serial dilution
Outline: as §1

Serratia marcescens = experiment: MIC against Gram-negative bacteria: Serratia marcescens; details: for MIC against S. marcescens: Serratia marcescens; for MIC S. marcescens: two-fold serial dilution
Outline: as §1

[1] = E. coli BL21, 10 h cultivation at 37° C.
[2] = P. aeruginosa, 10 h cultivation at 37° C.
[3] = K. pneumonia, 10 h cultivation at 37° C.
[4] = E. cloacae, 10 h cultivation at 37° C.
[5] = A. hydrophila, 10 h cultivation at 37° C.
[6] = C. diversus, 10 h cultivation at 37° C.
[7] = M. catarrhalis, 10 h cultivation at 37° C.
[8] = P. mirabilis, 10 h cultivation at 37° C.
[9] = P. vulgaris, 10 h cultivation at 37° C.
[10] = S. marcescens, 10 h cultivation at 37° C.
[11] = 5×10^5 CFU/mL, 10 h cultivation at 37° C.
[12] = 96-well plate, 5×10^5 CFU/mL, 37° C., 10 h
[13] = 10 h cultivation at 37° C., 5×10^5 CFU/mL

PRT209 (DVDECAQALHDCRPSQDCHNLPGSYQCTCPDGYR; listed as Homo sapiens)
25 µg/mL: MIC (μg/mL) K. pneumonia (Klebsiella pneumonia; K. pneumonia, 10 h cultivation at 37° C., 5×10^5 CFU/mL)
50 µg/mL: MIC (μg/mL) P. vulgaris (Proteus vulgaris; P. vulgaris, 10 h cultivation at 37° C., 5×10^5 CFU/mL)
12.5 µg/mL: MIC (E. coli DH5α) | MIC (μg/mL) E. coli BL21 (E. coli BL21; E. coli BL21, 10 h cultivation at 37° C., 5×10^5 CFU/mL) | MIC (μg/mL) P. aeruginosa (Pseudomonas aeruginosa; P. aeruginosa, 10 h cultivation at 37° C., 5×10^5 CFU/mL) | MIC (μg/mL) E. cloacae (Enterobacter cloacae; E. cloacae, 10 h cultivation at 37° C., 5×10^5 CFU/mL) | MIC (μg/mL) A. hydrophila (Aeromonas hydrophila; A. hydrophila, 10 h cultivation at 37° C., 5×10^5 CFU/mL) | MIC (μg/mL) C. diversus (Citrobacter diversus; C. diversus, 10 h cultivation at 37° C., 5×10^5 CFU/mL) | MIC (μg/mL) M. catarrhalis (Moraxella catarrhalis; M. catarrhalis, 10 h cultivation at 37° C., 5×10^5 CFU/mL) | MIC (μg/mL) P. mirabilis (Proteus mirabilis; P. mirabilis, 10 h cultivation at 37° C., 5×10^5 CFU/mL) | MIC (μg/mL) S. marcescens (Serratia marcescens; S. marcescens, 10 h cultivation at 37° C., 5×10^5 CFU/mL)

PRT936 (VLAPCSPNPCENAAVCKESPNFESYTCLCAPGWQGQRCT; listed as Homo sapiens)
12.5 µg/mL: MIC (E. coli BL21; [1]) | MIC (Enterobacter cloacae; [4]) | MIC (Moraxella catarrhalis; [7]) | MIC (Proteus vulgaris; [9])
25 µg/mL: MIC (E. coli DH5α) | MIC (Pseudomonas aeruginosa; [2]) | MIC (Aeromonas hydrophila; [5])
50 µg/mL: MIC (Klebsiella pneumonia; [3]) | MIC (Citrobacter diversus; [6]) | MIC (Proteus mirabilis; [8]) | MIC (Serratia marcescens; [10])

PRT1393 (EERSCHSHCTEHGQCKDGKCECSPGWEGDHCT; listed as Homo sapiens)
50 µg/mL: MIC against K. pneumonia (Klebsiella pneumonia; [11]) | MIC against M. catarrhalis (Moraxella catarrhalis; [11]) | MIC against P. vulgaris (Proteus vulgaris; [11])
25 µg/mL: MIC (E. coli DH5α) | MIC against P. aeruginosa (Pseudomonas aeruginosa; [11]) | MIC against E. cloacae (Enterobacter cloacae; [11]) | MIC against C. diversus (Citrobacter diversus; [11])
12.5 µg/mL: MIC against E. coli BL21 (E. coli BL21; E. coli BL21, 5×10^5 CFU/mL, 10 h cultivation at 37° C.) | MIC against A. hydrophila (Aeromonas hydrophila; [11]) | MIC against P. mirabilis (Proteus mirabilis; [11]) | MIC against S. marcescens (Serratia marcescens; [11])

PRT1265 (DVDECLENNGGCQHTCVNVMGSYECCCKEGFFLSDNQHTCI; listed as Homo sapiens)
50 µg/mL: MIC against E. coli BL21 (E. coli BL21; E. coli BL21, 96-well plate, 5×10^5 CFU/mL, 37° C., 10 h) | MIC against A. hydrophila (Aeromonas hydrophila; [12]) | MIC against P. vulgaris (Proteus vulgaris; [12])
25 µg/mL: MIC (E. coli DH5α) | MIC against P. aeruginosa (Pseudomonas aeruginosa; [12]) | MIC against E. cloacae (Enterobacter cloacae; [12]) | MIC against C. diversus (Citrobacter diversus; [12])
12.5 µg/mL: MIC against K. pneumonia (Klebsiella pneumonia; [12]) | MIC against M. catarrhalis (Moraxella catarrhalis; [12]) | MIC against P. mirabilis (Proteus mirabilis; [12]) | MIC against S. marcescens (Serratia marcescens; [12])

PRT1130 (DDCSSHCDLAHGCCAPDGSCRCDPGWEGLHCE; listed as Homo sapiens)
25 µg/mL: MIC C. diversus (Citrobacter diversus; [13]) | MIC P. mirabilis (Proteus mirabilis; [13]) | MIC S. marcescens (Serratia marcescens; [13])
50 µg/mL: MIC P. aeruginosa (Pseudomonas aeruginosa; [13]) | MIC E. cloacae (Enterobacter cloacae; [13]) | MIC M. catarrhalis (Moraxella catarrhalis; [13])
12.5 µg/mL: MIC (E. coli DH5α) | MIC E. coli BL21 (E. coli BL21; [13]) | MIC K. pneumonia (Klebsiella pneumonia; [13]) | MIC A. hydrophila (Aeromonas hydrophila; [13]) | MIC P. vulgaris (Proteus vulgaris; [13])

PRT1002 (FPDPCQNAQLCQNGGSCQALLPAPLGLPSSPSPLTPSFLCTCLPGFTGERCQ; listed as Homo sapiens)
50 µg/mL: MIC (Klebsiella pneumonia; [3]) | MIC (Aeromonas hydrophila; [5]) | MIC (Proteus vulgaris; [9])
12.5 µg/mL: MIC (E. coli BL21; [1]) | MIC (Enterobacter cloacae; [4]) | MIC (Moraxella catarrhalis; [7]) | MIC (Serratia marcescens; [10])
25 µg/mL: MIC (E. coli DH5α) | MIC (Pseudomonas aeruginosa; [2]) | MIC (Citrobacter diversus; [6]) | MIC (Proteus mirabilis; [8])

PRT1106 (NTDECASQPCLHGGLCVDGENRYSCNCTGSGFTGTHCE; listed as Homo sapiens)
25 µg/mL: MIC (E. coli DH5α) | MIC E. coli BL21 (E. coli BL21; [13]) | MIC K. pneumonia (Klebsiella pneumonia; [13]) | MIC C. diversus (Citrobacter diversus; [13]) | MIC P. mirabilis (Proteus mirabilis; [13])
50 µg/mL: MIC E. cloacae (Enterobacter cloacae; [13]) | MIC M. catarrhalis (Moraxella catarrhalis; [13]) | MIC S. marcescens (Serratia marcescens; [13])
12.5 µg/mL: MIC P. aeruginosa (Pseudomonas aeruginosa; [13]) | MIC A. hydrophila (Aeromonas hydrophila; [13]) | MIC P. vulgaris (Proteus vulgaris; [13])
